Values quoted from earlier work as cited in patent publication US6960571B2, “Methods and compositions for administration of iron for the treatment of restless leg syndrome” (Luitpold Pharmaceuticals, Inc., priority 2003, dated 2005).
Where two headings read alike, the source gives them in different places.

## NC(=O)N1c2ccccc2C=Cc2ccccc21 [Carbamazepine]
Epilepsy patients, fetal malformation, rash, hyponatremia, hepatotoxicity, blood disorders, ataxia, gastro-intestinal problems, sexual dysfunction, toxicity
  % affected by side effects: 1-33%

## O=C1CN=C(c2ccccc2Cl)c2cc([N+](=O)[O-])ccc2N1 [Clonazepam]
Epilepsy patients, somnolence, depression, in-coordination
  % affected by side effects: 6-37%

## Clc1cccc(Cl)c1N=C1NCCN1 [Clonidine]
Hypertension patients, reduced blood pressure, dermatitis, systemic side effects (dry mouth, somnolence, dizziness, headache)
  % affected by side effects: 8-89%

## NCC1(CC(=O)O)CCCCC1 [Gabapentin]
Epilepsy patients, fatigue, dizziness, somnolence, ataxia
  % affected by side effects: 11-19%

## CCCN[C@H]1CCc2nc(N)sc2C1 [Pramipexole]
Parkinson patients, somnolence, insomnia, nausea, constipation, hallucinations
  % affected by side effects: 9-28%

## Cc1nnc2n1-c1ccc(Cl)cc1C(c1ccccc1Cl)=NC2 [Triazolam]
Insomnia patients, drowsiness, dizziness, memory impairment
  % affected by side effects: 1-14%

## Pergolide w/ levodopa/carbidopa
Parkinson patients, dyskinesia, nausea, hallucinations, rhinitis, constipation, pain
  % affected by side effects: 7-62%

## levodopa/carbidopa
Parkinson patients, dyskinesia, nausea, hallucinations
  % affected by side effects: 4-17%
